ChEMBL document CHEMBL3596160, “From AChE to BACE1 inhibitors: The role of the amine on the indanone scaffold” (Bioorg Med Chem Lett, 2015)
Activity calls are given as the source filed them. The rule behind the calls is not given here.

How the values were obtained:
[1] = molecular target: T1, Acetylcholinesterase (Homo sapiens, UniProt P22303); assay: Inhibition of human recombinant AChE using acetylthiocholine iodide as substrate up to 50 uM preincubated with enzyme for 20 mins prior to substrate addition by Ellman's method
[2] = molecular target: Beta-secretase 1 (Homo sapiens, UniProt P56817); assay: Inhibition of human recombinant BACE1 using M-2420 as substrate preincubated with enzyme for 1 hr by FRET assay
[3] = (§1) Neurotoxicity against human SH-SY5Y cells assessed as inhibition of cell viability after 24 hrs by MTT assay; assay type: toxicity, cell-based; conditions: SH-SY5Y cells
[4] = molecular target: T1, Acetylcholinesterase
Description: Inhibition of human recombinant AChE using acetylthiocholine iodide as substrate preincubated with enzyme for 20 mins prior to substrate addition by Ellman's method

[5] = system: SH-SY5Y; assay: as §1; assay type: toxicity, cell-based; conditions: sh-sy5y, 24 h

Sequence of Beta-secretase 1 (P56817 whole entry): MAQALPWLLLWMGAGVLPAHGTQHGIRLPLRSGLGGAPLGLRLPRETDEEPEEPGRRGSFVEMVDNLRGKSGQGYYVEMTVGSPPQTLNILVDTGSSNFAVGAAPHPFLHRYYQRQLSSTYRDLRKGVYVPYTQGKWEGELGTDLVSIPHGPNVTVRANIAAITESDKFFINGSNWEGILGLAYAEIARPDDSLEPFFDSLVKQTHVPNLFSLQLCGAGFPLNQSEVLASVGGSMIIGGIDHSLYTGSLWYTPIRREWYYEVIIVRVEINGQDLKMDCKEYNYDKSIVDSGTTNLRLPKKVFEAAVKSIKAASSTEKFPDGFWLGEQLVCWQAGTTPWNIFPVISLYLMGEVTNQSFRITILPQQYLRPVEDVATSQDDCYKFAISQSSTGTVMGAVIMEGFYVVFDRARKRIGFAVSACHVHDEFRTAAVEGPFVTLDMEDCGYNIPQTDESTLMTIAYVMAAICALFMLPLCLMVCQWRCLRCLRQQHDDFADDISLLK
T1 sequence (P22303 whole entry): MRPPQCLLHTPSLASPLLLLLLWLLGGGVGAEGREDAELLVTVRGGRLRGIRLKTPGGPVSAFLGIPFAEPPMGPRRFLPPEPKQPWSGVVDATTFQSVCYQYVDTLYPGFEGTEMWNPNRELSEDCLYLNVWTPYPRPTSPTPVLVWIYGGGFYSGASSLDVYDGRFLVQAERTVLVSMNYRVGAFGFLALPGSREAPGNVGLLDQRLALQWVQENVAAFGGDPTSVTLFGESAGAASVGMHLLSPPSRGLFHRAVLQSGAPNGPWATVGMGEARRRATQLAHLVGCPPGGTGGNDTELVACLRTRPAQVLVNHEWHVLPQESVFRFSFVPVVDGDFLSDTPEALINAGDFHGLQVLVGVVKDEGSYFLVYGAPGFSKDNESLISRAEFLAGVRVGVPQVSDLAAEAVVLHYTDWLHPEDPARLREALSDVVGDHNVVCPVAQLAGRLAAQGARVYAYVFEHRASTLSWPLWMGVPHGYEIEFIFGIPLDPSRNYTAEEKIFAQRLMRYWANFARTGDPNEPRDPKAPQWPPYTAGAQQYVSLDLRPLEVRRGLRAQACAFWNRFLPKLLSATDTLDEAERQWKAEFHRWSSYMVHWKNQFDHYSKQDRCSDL

CN(Cc1ccccc1)Cc1ccc(/C=C2\Cc3ccc(OCCCCCN4CCC(n5c(=O)[nH]c6ccccc65)CC4)cc3C2=O)cc1
inhibition [1]: inactive

CN(Cc1ccccc1)Cc1ccc(/C=C2\Cc3ccc(OCCCCCN4CCN(c5ccccc5)CC4)cc3C2=O)cc1
inhibition [1]: inactive
IC50 [2]: 11.7 µM

CN(Cc1ccccc1)Cc1ccc(/C=C2\Cc3ccc(OCCCCCN4CCCCC4)cc3C2=O)cc1
IC50 at 24 h [3]: 23.3 µM

CN(Cc1ccccc1)Cc1ccc(/C=C2\CCc3cc(OCCCCCN4CCN(C(c5ccc(F)cc5)c5ccc(F)cc5)CC4)ccc3C2=O)cc1
inhibition [1]: inactive

CN(Cc1ccccc1)Cc1ccc(/C=C2\Cc3ccc(OCCCCCN4CCN(Cc5ccc(F)cc5)CC4)cc3C2=O)cc1
inhibition [1]: inactive

CN(Cc1ccccc1)Cc1ccc(/C=C2\CCc3cc(OCCCCCN4CCN(Cc5ccc(F)cc5)CC4)ccc3C2=O)cc1
IC50 [4]: 7.83 µM

CN(Cc1ccccc1)Cc1ccc(/C=C2\Cc3ccc(OCCCCCN4CCN(OC(=O)C(C)(C)C)CC4)cc3C2=O)cc1
inhibition [1]: inactive
IC50 [2]: 3.21 µM
Activity [5]: Non-toxic

CN(Cc1ccccc1)Cc1ccc(/C=C2\Cc3ccc(OCCCCCN4CCC(=C(c5ccc(F)cc5)c5ccc(F)cc5)CC4)cc3C2=O)cc1
inhibition [1]: inactive
IC50 [2]: 5.95 µM

CN(Cc1ccccc1)Cc1ccc(/C=C2\Cc3ccc(OCCCCCN4CCN(C(c5ccc(F)cc5)c5ccc(F)cc5)CC4)cc3C2=O)cc1
inhibition [1]: inactive
IC50 [2]: 2.49 µM
Activity [5]: Non-toxic

CN(Cc1ccccc1)Cc1ccc(/C=C2\Cc3ccc(OCCCCCN4CCC(c5ccccc5)CC4)cc3C2=O)cc1
IC50 [2]: 13.4 µM
IC50 [4]: 62 µM

CCOC(=O)C1(c2ccccc2)CCN(CCCCCOc2ccc3c(c2)C(=O)/C(=C/c2ccc(CN(C)Cc4ccccc4)cc2)C3)CC1
inhibition [1]: inactive
IC50 [2]: 8.23 µM
